We go through two molecules from patent US5604206A, “Complexes containing S(+) phenyl alkane acids and amino sugars” (priority 1990, dated 1997).

One series is described as follows: clinical. Conditions: human, in vivo, po.
Series [1] in a line: Pharmacokinetics after a single oral dose in test persons (Table 1).
Text: (§1) Pharmacokinetic parameters after taking a (single) oral
(§2) ibuprofen active substance) (4 test persons)
[2] abbreviates: single oral dose, tablet, 150 mg ibuprofen active substance, 4 test persons, Mean ± SD.

Text for clinical: as §1, §2

Molecule `CC(C)Cc1ccc([C@H](C)C(=O)O)cc1` [S(+)-ibuprofen free acid, S(+)-ibuprofen, reference compound] had a tmax in “clinical” of 2.1 ± 0.2 h. The tlag in series [1] (setting [2]) is 0.50 ± 0.1 h.
Take `CC(C)Cc1ccc([C@H](C)C(=O)O)cc1.CNC[C@H](O)[C@@H](O)[C@H](O)[C@H](O)CO` [Sugar complex, S(+)-ibuprofen-N-methyl-2-deoxy-glucitol]: in series [1] (150 mg active substance), the “tmax (rapid onset effect)” value is 0.25 to 0.333 h. In series [1] (setting [2]), this molecule yielded an area under the curve (AUC) of 55000 ± 10200 ng·h/mL, a Cmax of 24500 ± 6700 ng/mL, a tlag of 0.1 ± 0.02 h and a tmax of 0.25 ± 0.11 h.
